Measured values published in patent publication US8518964B2, “Tricyclic compounds useful as inhibitors of kinases” (Merck Sharp & Dohme Corp., priority 2006, dated 2013).

These compounds were tested against T1, IKKβ (Homo sapiens, UniProt O14920) (assay: Homogenous Time Resolved Fluorescence (HTRF) assay for IKK inhibitory activity). Settings: read-out: IKKβIC50.
T1 construct: His; made in house; host or cells: SF9 insect cells (baculovirus, pVL1393 transfer vector)
T1 sequence (O14920 1-756): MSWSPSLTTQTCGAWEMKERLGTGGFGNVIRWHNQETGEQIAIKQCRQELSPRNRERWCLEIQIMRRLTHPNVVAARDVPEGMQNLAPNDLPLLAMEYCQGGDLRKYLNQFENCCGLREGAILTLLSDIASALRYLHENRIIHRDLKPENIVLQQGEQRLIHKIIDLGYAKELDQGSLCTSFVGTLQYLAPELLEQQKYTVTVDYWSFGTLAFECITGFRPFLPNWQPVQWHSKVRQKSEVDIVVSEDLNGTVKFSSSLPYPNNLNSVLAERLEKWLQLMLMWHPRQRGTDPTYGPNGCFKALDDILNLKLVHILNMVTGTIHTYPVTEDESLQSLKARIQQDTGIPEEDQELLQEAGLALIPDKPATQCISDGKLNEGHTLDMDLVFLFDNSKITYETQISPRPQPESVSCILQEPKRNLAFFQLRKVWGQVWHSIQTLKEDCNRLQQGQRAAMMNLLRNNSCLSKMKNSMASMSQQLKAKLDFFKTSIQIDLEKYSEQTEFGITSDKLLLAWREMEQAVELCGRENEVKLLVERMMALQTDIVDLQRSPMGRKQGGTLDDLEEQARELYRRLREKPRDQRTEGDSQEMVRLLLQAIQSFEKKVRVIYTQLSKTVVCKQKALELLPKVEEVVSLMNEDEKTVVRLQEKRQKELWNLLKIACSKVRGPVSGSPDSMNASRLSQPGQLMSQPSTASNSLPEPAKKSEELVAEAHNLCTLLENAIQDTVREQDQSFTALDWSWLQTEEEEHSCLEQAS
Format: biochemical
Text: Homogenous Time Resolved Fluorescence (HTRF) Assay for IKK Inhibitory Activity.
This enzyme assay monitors the inhibitory potency of the compounds of Formula I and II to block the catalytic activity of IKKα and IKKβ in vitro. The full-length coding sequences of IKKα and IKKβ are subcloned into the appropriate site of pVL1393 (Pharmingen) to construct a baculovirus transfer vector. Recombinant baculovirus was generated from vector-transfected SF9 cells (BaculoGold™, Invitrogen), cloned, amplified and used to infect SF9 cells for protein production. Recombinant His-tagged IKKα and IKKβ are isolated from the Baculovirus-infected SF9 cells expressing the fusion protein.
An HTRF assay in a 384-well format established on a Biomek FX is used to test the inhibitory activity of compounds of Formula I. The peptide substrate, biotin-DRHDSGLDSMKDE (SEQ. ID.: 1) used to assay IKKβ activity spans residues 28 to 40 of IκBα and was custom synthesized (Synpep). A biotinylated peptide that spans residues 21 to 40 of Iκbα, […] (SEQ. ID.: 2), was used as substrate for IKKα. The assay conditions used to test inhibitory activity of compounds against IKKβ comprises 110 nM recombinant enzyme, 150 nM peptide substrate, 6 μM ATP, 10% (v/v) DMSO, 15 mM MgCl2, 2 mM DTT, and 50 mM Tris/HCl at a pH of 7.5. For IKKα, the reaction mixture comprises 125 nM recombinant enzyme, 400 nM peptide substrate, 6 μM ATP, 10% (v/v) DMSO, 15 mM MgCl2, 2 mM DTT, and 50 mM Tris/HCl at a pH of 7.5. The kinase reaction proceeds for 20 and 35 min for IKKα and IKKβ respectively and then it is quenched by the addition of EDTA to a final concentration of 20 mM. Following completion of the kinase assay, 5 μL of the reaction is quantified by HTRF with a 5 μL detection mix comprising 40 mM HEPES, 100 mM KF, 27.7 nM Streptavidin-tagged-XL665-XLent (CIS-Bio international), 0.3 nM anti-phospho-IκBα mAb (Cell signaling), 1 nM anti-phospho peptide antibody conjugated to Eu (CIS-Bio international). Following excitation at 330 nm, the 665 nm/615 nm emission ratio is measured after a 2-hour incubation at room temperature to quantify the FRET signal.

| IC50 | SMILES |
| --- | --- |
| ≤ 500 nM | CN(C)Cc1ccc(-c2ccc3c(c2)sc2c(C(N)=O)cnc(N)c23)cc1 [Example 21, 1-Amino-7-{4-[(dimethylamino)methyl]phenyl}[1]benzothieno[3,2-c]pyridine-4-carboxamide] |
| ≤ 500 nM | NC(=O)c1cnc(N)c2c1sc1cc(/C=C/c3ccc(F)cc3)ccc12 [Example 16, 1-Amino-7-[(E)-2-(4-fluorophenyl)vinyl][1]benzothieno[3,2-c]pyridine-4-carboxamide] |
| ≤ 100 nM | NC(=O)c1cnc(N)c2c1[nH]c1cc(C(F)(F)F)ccc12 [Example 5, 1-Amino-7-(trifluoromethyl)-5H-pyrido[4,3-b]indole-4-carboxamide] |
| ≤ 100 nM | NC(=O)c1cnc(N)c2c1[nH]c1c(Cl)cccc12 [Example 25, 1-Amino-6-chloro-5H-pyrido[4,3-b]indole-4-carboxamide] |
| ≤ 1000 nM | NC(=O)c1cnc(N)c2c1[nH]c1ccc(F)cc12 [Example 6, 1-Amino-8-fluoro-5H-pyrido[4,3-b]indole-4-carboxamide] |
| ≤ 1000 nM | CCCCNc1ncc(C(N)=O)c2[nH]c3ccc(F)cc3c12 [Example 8, 1-(Butylamino)-8-fluoro-5H-pyrido[4,3-b]indole-4-carboxamide] |
| ≤ 1000 nM | NC(=O)c1cnc(N)c2c1sc1c(-c3ccccc3)cccc12 [Example 4, 1-Amino-6-phenyl[1]benzothieno[3,2-c]pyridine-4-carboxamide] |
| ≤ 1000 nM | NC(=O)c1cnc(N)c2c1sc1c(Cl)cccc12 [Example 3, 1-Amino-6-chloro[1]benzothieno[3,2-c]pyridine-4-carboxamide] |
| ≤ 1000 nM | NC(=O)c1cnc(N)c2c1[nH]c1ccc(Br)cc12 [Example 11, 1-Amino-8-bromo-5H-pyrido[4,3-b]indole-4-carboxamide] |
| ≤ 500 nM | NC(=O)c1cnc(N2CCC3(CC2)OCc2ccccc23)c2c1[nH]c1ccc(F)cc12 [Example 9, 8-Fluoro-1-(1′H,3H-spiro[2-benzofuran-1,4′-piperidin]-1′-yl)-5H-pyrido[4,3-b]indole-4-carboxamide] |
